Measured values reported in ChEMBL document CHEMBL4007451, “The 2014 Philip S. Portoghese Medicinal Chemistry Lectureship: The "Phenylalkylaminome" with a Focus on Selected Drugs of Abuse” (J Med Chem, 2017).

Key:
Rattus norvegicus [1] = species: Rattus norvegicus; assay: Induction of stimulus generalization in rat trained to discriminate PMMA assessed as appropriate responding level to training drug by two lever method; type: functional; conditions: for ED50: Rattus norvegicus
Rattus norvegicus [2] = species: Rattus norvegicus; assay: Induction of stimulus generalization in rat trained to discriminate MDMA assessed as appropriate responding level to training drug by two lever method; type: functional
Rattus norvegicus [3] = species: Rattus norvegicus; assay: Induction of stimulus generalization in rat trained to discriminate DOM assessed as appropriate responding level to training drug by two lever method; type: functional
[4] = Displacement of [3H]ketanserin from rat brain 5HT2 receptor
[5] = Activity at NET in rat synaptosomes assessed as release of [3H]NE after 30 mins by liquid scintillation counting method; type: subcellular
[6] = target: Sodium-dependent dopamine transporter (Rattus norvegicus, UniProt P23977); assay: Activity at DAT in rat synaptosomes assessed as release of [3H]DA after 5 mins by liquid scintillation counting method; type: subcellular
[7] = target: Sodium-dependent serotonin transporter (Rattus norvegicus, UniProt P31652); assay: Activity at SERT in rat synaptosomes assessed as release of [3H]HT after 5 mins by liquid scintillation counting method; type: subcellular
Rattus norvegicus [8] = species: Rattus norvegicus; assay: Induction of stimulus generalization in Sprague-Dawley rat trained to discriminate MDMA assessed as appropriate responding level to training drug by two lever method; type: functional; conditions: for ED50: Rattus norvegicus, Sprague-Dawley
Rattus norvegicus [9] = species: Rattus norvegicus; assay: Induction of stimulus generalization in Sprague-Dawley rat trained to discriminate alpha-ET assessed as appropriate responding level to training drug by two lever method; type: functional; conditions: for ED50: Rattus norvegicus, Sprague-Dawley
Rattus norvegicus [10] = species: Rattus norvegicus; assay: Induction of stimulus generalization in Sprague-Dawley rat trained to discriminate PMMA assessed as appropriate responding level to training drug by two lever method; type: functional
Rattus norvegicus [11] = species: Rattus norvegicus; assay: Induction of stimulus generalization in Sprague-Dawley rat trained to discriminate DOM assessed as appropriate responding level to training drug by two lever method; type: functional; conditions: for ED50: Rattus norvegicus, Sprague-Dawley
Rattus norvegicus [12] = species: Rattus norvegicus; assay: Induction of stimulus generalization in Sprague-Dawley rat trained to discriminate AMPH assessed as appropriate responding level to training drug by two lever method; type: functional; conditions: for ED50: Rattus norvegicus, Sprague-Dawley
[13] = target: Sigma non-opioid intracellular receptor 1 (Cavia porcellus, UniProt Q60492); assay: Displacement of (+)-[3H]pentazocine from guinea pig brain membrane sigma1 receptor by scintillation spectrometric method
[14] = target: 5-hydroxytryptamine receptor 2A (Homo sapiens, UniProt P28223); assay: Displacement of [125I]DOI from recombinant human 5HT2A expressed in Syrian hamster AV12 cell membranes
[15] = target: T1, 5-hydroxytryptamine receptor 2A (Rattus norvegicus, UniProt P14842); assay: Displacement of [3H]DOB from 5HT2A in Sprague-Dawley rat cortex membranes measured after 15 mins by scintillation counting method; type: cell membranes
Rattus norvegicus [16] = species: Rattus norvegicus; assay: Induction of stimulus generalization in rat trained to discriminate S(+)methamphetamine assessed as appropriate responding level to training drug by two lever method; type: functional
Rattus norvegicus [17] = species: Rattus norvegicus; assay: Induction of stimulus generalization in rat trained to discriminate (-)ephedrine assessed as appropriate responding level to training drug by two lever method; type: functional
[18] = target: T1, 5-hydroxytryptamine receptor 2A; assay: Displacement of [3H]ketanserin from 5HT2A in Sprague-Dawley rat frontal cortex membranes measured after 15 mins by scintillation counting method; design: species or system Membrane
Rattus norvegicus [19] = species: Rattus norvegicus; assay: Induction of stimulus generalization in Sprague-Dawley rat trained to discriminate S(+)AMPH assessed as appropriate responding level to training drug by two lever method; type: functional
Rattus norvegicus [20] = species: Rattus norvegicus; assay: Induction of stimulus generalization in Sprague-Dawley rat trained to discriminate S(-)MCAT assessed as appropriate responding level to training drug by two lever method; type: functional
[21] = Displacement of [3H]DTG from sigma receptor (unknown origin); design: species or system Homo sapiens
Rattus norvegicus [22] = species: Rattus norvegicus; assay: Induction of stimulus generalization in rat trained to discriminate (+)amphetamine assessed as appropriate responding level to training drug by two lever method; type: functional
Mus musculus = assay: Anxiolytic-like activity in iv dosed ICR mouse assessed as increase in marbles left uncovered measured after 30 mins by marble burying assay; type: functional; conditions: 0.5 h
[23] = target: T2, 5-hydroxytryptamine receptor 1A (Rattus norvegicus, UniProt P19327); assay: Displacement of [3H]-8-OH-DPAT from 5-HT1A receptor in Sprague-Dawley rat cortex membranes after 15 mins by liquid scintillation spectrometric method; type: cell membranes
T2 sequence (P19327 whole entry): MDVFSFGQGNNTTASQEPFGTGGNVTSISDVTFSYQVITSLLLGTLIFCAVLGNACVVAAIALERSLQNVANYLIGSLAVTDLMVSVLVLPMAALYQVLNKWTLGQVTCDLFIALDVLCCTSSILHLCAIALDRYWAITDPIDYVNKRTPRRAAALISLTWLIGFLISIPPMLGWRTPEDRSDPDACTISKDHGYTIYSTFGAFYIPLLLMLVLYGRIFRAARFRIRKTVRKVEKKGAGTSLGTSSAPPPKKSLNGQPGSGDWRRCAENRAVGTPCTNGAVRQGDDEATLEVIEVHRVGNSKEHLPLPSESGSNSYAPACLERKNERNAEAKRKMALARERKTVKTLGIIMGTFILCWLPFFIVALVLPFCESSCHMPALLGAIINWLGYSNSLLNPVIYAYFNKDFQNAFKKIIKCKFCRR

Rattus norvegicus [24] = species: Rattus norvegicus; assay: Induction of stimulus generalization in Sprague-Dawley rat trained to discriminate rac-cathinone assessed as appropriate responding level to training drug by two lever method; type: functional
[25] = target: Sodium-dependent dopamine transporter (Homo sapiens, UniProt Q01959); assay: Activity at DAT (unknown origin) assessed as release of [3H]DA
[26] = target: Sodium-dependent serotonin transporter (Homo sapiens, UniProt P31645); assay: Activity at SERT (unknown origin) assessed as release of [3H]HT
Homo sapiens = species: Homo sapiens; assay: Selectivity ratio of EC50 for SERT (unknown origin) assessed as release of [3H]HT to EC50 for DAT (unknown origin) by [3H]DA release assay

Sequence of Sodium-dependent dopamine transporter (Rattus norvegicus, UniProt P23977) (P23977 whole entry): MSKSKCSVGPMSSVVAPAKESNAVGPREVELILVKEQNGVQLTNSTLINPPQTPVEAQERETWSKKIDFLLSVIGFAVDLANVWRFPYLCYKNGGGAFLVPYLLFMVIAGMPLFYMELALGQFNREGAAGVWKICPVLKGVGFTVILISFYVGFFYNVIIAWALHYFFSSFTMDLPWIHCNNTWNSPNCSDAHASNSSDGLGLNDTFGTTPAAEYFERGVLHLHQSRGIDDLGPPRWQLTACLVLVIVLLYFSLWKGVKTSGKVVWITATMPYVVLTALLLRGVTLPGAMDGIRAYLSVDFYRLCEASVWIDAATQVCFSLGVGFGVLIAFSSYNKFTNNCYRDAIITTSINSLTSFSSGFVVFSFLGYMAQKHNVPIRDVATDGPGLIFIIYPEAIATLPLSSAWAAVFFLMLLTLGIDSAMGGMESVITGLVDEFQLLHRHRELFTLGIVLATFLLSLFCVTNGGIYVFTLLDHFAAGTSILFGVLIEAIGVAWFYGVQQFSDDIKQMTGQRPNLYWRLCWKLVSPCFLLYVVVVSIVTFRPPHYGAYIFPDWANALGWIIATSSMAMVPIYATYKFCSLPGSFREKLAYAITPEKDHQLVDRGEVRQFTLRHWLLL
Sequence of Sigma non-opioid intracellular receptor 1 (Q60492 whole entry): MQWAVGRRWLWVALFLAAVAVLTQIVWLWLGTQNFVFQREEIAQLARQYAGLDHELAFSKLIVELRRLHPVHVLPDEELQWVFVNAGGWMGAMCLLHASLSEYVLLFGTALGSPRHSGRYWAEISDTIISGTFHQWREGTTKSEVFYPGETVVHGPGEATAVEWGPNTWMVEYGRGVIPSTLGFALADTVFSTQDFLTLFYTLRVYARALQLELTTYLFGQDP
T1 sequence (P14842 whole entry): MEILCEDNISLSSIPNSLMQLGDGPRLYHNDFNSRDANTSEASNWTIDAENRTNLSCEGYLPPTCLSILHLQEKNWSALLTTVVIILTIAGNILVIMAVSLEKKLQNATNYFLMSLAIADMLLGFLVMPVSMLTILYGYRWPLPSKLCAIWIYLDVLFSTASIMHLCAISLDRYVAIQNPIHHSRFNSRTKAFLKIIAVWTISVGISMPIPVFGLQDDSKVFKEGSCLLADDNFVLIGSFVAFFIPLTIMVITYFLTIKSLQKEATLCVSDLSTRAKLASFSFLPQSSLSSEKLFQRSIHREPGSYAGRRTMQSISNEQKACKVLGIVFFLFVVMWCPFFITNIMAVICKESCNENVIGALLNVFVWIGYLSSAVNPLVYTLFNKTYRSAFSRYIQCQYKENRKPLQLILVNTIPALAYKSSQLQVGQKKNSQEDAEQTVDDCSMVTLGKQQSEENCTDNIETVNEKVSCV
Sequence of Sodium-dependent serotonin transporter (Rattus norvegicus, UniProt P31652) (P31652 whole entry): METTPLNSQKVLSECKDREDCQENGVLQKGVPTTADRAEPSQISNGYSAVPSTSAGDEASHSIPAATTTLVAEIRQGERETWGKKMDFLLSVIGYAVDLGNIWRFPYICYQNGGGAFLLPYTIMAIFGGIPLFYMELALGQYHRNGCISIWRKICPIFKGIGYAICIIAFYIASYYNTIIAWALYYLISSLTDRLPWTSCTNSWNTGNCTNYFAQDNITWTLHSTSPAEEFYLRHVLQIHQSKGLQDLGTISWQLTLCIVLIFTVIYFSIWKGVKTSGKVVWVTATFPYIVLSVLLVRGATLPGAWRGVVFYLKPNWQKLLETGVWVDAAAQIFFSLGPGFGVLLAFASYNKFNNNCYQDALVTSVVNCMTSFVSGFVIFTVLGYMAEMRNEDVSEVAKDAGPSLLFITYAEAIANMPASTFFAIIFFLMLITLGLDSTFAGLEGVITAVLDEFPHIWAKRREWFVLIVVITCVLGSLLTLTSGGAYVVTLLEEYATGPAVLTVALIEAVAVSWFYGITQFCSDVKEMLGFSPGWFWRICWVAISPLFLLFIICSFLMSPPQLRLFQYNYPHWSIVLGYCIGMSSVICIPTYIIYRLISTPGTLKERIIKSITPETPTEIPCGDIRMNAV
Sequence of Sodium-dependent serotonin transporter (Homo sapiens, UniProt P31645) (P31645 whole entry): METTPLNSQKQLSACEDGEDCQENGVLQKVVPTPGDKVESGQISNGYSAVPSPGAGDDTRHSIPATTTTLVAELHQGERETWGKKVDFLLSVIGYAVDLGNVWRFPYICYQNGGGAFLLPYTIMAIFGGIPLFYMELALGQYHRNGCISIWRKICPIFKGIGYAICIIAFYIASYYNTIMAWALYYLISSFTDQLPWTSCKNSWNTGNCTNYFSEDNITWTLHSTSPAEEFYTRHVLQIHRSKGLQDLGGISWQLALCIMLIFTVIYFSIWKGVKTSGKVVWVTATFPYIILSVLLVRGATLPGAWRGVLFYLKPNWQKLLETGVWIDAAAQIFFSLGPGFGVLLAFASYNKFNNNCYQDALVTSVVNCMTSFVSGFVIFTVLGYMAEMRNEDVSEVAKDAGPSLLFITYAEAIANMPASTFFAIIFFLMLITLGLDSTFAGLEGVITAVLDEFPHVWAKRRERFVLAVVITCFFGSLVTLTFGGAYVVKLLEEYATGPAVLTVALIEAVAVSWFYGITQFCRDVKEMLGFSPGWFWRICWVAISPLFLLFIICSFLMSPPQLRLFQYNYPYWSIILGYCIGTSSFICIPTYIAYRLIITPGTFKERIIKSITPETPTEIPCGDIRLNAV
Sequence of Sodium-dependent dopamine transporter (Homo sapiens, UniProt Q01959) (Q01959 whole entry): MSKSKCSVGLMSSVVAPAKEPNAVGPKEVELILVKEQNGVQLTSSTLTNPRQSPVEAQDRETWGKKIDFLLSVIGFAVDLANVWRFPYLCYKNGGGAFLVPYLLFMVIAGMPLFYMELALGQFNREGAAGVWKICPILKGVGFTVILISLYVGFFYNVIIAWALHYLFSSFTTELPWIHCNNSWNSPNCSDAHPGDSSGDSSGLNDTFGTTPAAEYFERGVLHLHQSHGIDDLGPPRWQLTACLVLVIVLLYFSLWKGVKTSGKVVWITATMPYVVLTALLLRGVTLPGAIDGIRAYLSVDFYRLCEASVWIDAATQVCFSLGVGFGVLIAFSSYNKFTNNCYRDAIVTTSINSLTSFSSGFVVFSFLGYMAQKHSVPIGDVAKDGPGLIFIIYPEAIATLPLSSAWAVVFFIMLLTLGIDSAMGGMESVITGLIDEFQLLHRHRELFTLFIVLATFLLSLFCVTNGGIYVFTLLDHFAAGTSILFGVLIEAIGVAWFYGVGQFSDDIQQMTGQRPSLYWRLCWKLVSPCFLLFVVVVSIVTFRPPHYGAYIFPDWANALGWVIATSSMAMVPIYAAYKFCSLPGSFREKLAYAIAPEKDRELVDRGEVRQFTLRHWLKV
Sequence of 5-hydroxytryptamine receptor 2A (Homo sapiens, UniProt P28223) (P28223 whole entry): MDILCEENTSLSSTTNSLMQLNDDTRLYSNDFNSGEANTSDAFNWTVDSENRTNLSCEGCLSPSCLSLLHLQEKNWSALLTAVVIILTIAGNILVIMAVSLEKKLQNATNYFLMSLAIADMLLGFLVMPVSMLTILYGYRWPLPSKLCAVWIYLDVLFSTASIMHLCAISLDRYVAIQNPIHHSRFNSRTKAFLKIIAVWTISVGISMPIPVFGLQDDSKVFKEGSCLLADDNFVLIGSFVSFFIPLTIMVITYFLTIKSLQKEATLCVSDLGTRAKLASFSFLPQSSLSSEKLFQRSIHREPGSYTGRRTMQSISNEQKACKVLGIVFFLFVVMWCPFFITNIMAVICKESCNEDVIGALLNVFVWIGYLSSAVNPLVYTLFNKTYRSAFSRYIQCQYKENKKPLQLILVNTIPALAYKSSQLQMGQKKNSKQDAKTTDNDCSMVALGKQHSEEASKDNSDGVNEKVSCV

Work on `COc1ccc(C[C@@H](C)N)cc1` yielded an ED50 (Rattus norvegicus [1]) of 0.4 mg/kg and an Activity (Rattus norvegicus [2]) of under 20%.

In the case of `CC(N)Cc1c[nH]c2ccccc12` (configuration not stated), the ED50 (Rattus norvegicus [3]) is reported as 3.1 mg/kg and the Ki [4] is reported as 3100 nM.

In the case of `CC(N)Cc1ccc2c(c1)OCO2` (racemic) [TENAMFETAMINE], the EC50 [5] is reported as 108 nM, the ED50 (Rattus norvegicus [1]) is reported as 0.5 mg/kg and the EC50 [6] is reported as 190 nM. It also gave an EC50 [7] of 160 nM.

`CNC(C)Cc1ccc(OC)cc1` (configuration not stated) showed an ED50 (Rattus norvegicus [8]) of 0.2 mg/kg, an ED50 (Rattus norvegicus [9]) of 0.7 mg/kg and an ED50 (Rattus norvegicus [10]) of 0.4 mg/kg.

`CC[C@@H](N)Cc1c[nH]c2ccccc12` gave an EC50 [5] of over 10000 nM, an ED50 (Rattus norvegicus [8]) of 1.3 mg/kg and an ED50 (Rattus norvegicus [9]) of 1.6 mg/kg. The ED50 (Rattus norvegicus [10]) was 1.6 mg/kg, the EC50 [6] was 900 nM and the Activity (Rattus norvegicus [11]) was 33%. The EC50 [7] was 68 nM and the ED50 (Rattus norvegicus [12]) was 7.8 mg/kg.

`c1ccc(CCCCCN2CCCC(c3ccccc3)C2)cc1` (configuration not stated) showed a Ki [13] of 0.14 nM.

For `CC[C@H](N)Cc1c[nH]c2ccccc12`, the EC50 [5] was over 10000 nM, the ED50 (Rattus norvegicus [8]) was 2 mg/kg and the ED50 (Rattus norvegicus [9]) was 1.3 mg/kg. It also gave an ED50 (Rattus norvegicus [10]) of 1.4 mg/kg, an EC50 [6] of 64 nM and an ED50 (Rattus norvegicus [11]) of 2.7 mg/kg. For the same compound, the EC50 [7] was 20 nM and the Activity (Rattus norvegicus [12]) was 53%.

`COc1cc(OC)c(OC)cc1CC(C)N` (configuration not stated) gave a Ki [14] of 57.9 nM and a Ki [15] of 81 nM.

With `CN[C@@H](C)[C@H](O)c1ccccc1` [EPHEDRINE] the ED50 (Rattus norvegicus [16]) was 13.1 mg/kg and the ED50 (Rattus norvegicus [17]) was 0.8 mg/kg.

Compound `CN[C@@H](C)Cc1ccc2c(c1)OCO2` has an EC50 [5] of 136 nM, a Ki [18] of 15800 nM and an ED50 (Rattus norvegicus [1]) of 0.48 mg/kg. The EC50 [6] was 142 nM and the EC50 [7] was 74 nM.

In the case of `C[C@@H](Cc1ccccc1)NCCCCCc1ccccc1`, the Ki [13] is reported as 0.9 nM.

In the case of `CN[C@@H](C)C(=O)c1ccccc1`, the ED50 (Rattus norvegicus [19]) is reported as 0.18 mg/kg, the EC50 [5] is reported as 13.1 nM and the ED50 (Rattus norvegicus [20]) is reported as 0.11 mg/kg. The ED50 (Rattus norvegicus [16]) was 0.21 mg/kg, the EC50 [6] was 14.8 nM and the EC50 [7] was 1770 nM.

With `C=CCN1CCC2(C)c3cc(O)ccc3CC1C2C` (racemic) the Ki [21] was 430 nM.

In the case of `CC(N)C(=O)c1ccccc1` (racemic) [DEALKYLATED DIETHYLPROPION], the ED50 (Rattus norvegicus [22]) is reported as 0.72 mg/kg.

`CC1CCN(CCCCCc2ccccc2)CC1` gave a Ki [13] of 0.07 nM.

For `COc1cccc(C[C@H](C)N)c1` [(S)-M-METHOXYAMPHETAMINE], the Activity (Rattus norvegicus [1]) was 20 - 80% and the Activity (Rattus norvegicus [2]) was under 20%.

Work on `COc1cc(CC(C)N)c(OC)cc1I` (configuration not stated) yielded a Ki [15] of 0.7 nM.

In the case of `O=C1CC2(CCCC2)CC(=O)N1CCCCN1CCN(c2ncccn2)CC1` [BUSPIRONE], the ED50 (Mus musculus) is reported as 2.36 mg/kg.

For `CCCCN(CCCC)[C@@H]1CCc2cccc(O)c2C1`, the Ki [23] was 109 nM.

`C[C@@H](N)C(=O)c1ccccc1` showed an ED50 (Rattus norvegicus [24]) of 0.72 mg/kg and an ED50 (Rattus norvegicus [22]) of 4.41 mg/kg.

For `CNC(C)C(=O)c1ccc(C)cc1` (configuration not stated) [MEPHEDRONE], the EC50 [25] was 49.1 nM, the EC50 [26] was 118 nM and the Ratio EC50 (Homo sapiens) was 2.5.

With `C[C@@H](N)Cc1ccc2c(c1)OCO2` the EC50 [5] was 290 nM, the ED50 (Rattus norvegicus [1]) was 1.5 mg/kg and the EC50 [6] was 900 nM. It also gave an EC50 [7] of 310 nM.

With `CCCCCCN(C)CCc1ccccc1` the Ki [13] was 48 nM.

`CN(C)[C@@H]1CCc2cccc(O)c2C1` showed a Ki [23] of 75 nM.

Work on `CNC(C)C(=O)c1ccc(C(F)(F)F)cc1` (configuration not stated) yielded an EC50 [25] of 2700 nM, an EC50 [26] of 190 nM and a Ratio EC50 (Homo sapiens) of 14.

In the case of `C[C@H](N)Cc1ccccc1` [DEXTROAMPHETAMINE], the ED50 (Rattus norvegicus [19]) is reported as 0.44 mg/kg, the EC50 [5] is reported as 7 nM and the Activity (Rattus norvegicus [8]) is reported as 20 - 80%. The ED50 (Rattus norvegicus [20]) was 0.23 mg/kg, the Activity (Rattus norvegicus [9]) was 20 - 80% and the ED50 (Rattus norvegicus [24]) was 0.2 mg/kg. The Ki [21] was 46000 nM, the ED50 (Rattus norvegicus [16]) was 0.28 mg/kg and the ED50 (Rattus norvegicus [22]) was 0.62 mg/kg. The ED50 (Rattus norvegicus [12]) was 0.4 mg/kg.

Compound `COc1ccc(C[C@@H](C)N)cc1OC` has an ED50 (Rattus norvegicus [1]) of 3 mg/kg and an ED50 (Rattus norvegicus [2]; Rattus norvegicus) of 5.4 mg/kg.

`c1ccc(CCCCCN2CCCCC2Cc2ccccc2)cc1` (configuration not stated) gave a Ki [13] of 0.08 nM.

Work on `COc1cc(CC(C)N)c(OC)cc1C` (configuration not stated) [DOM] yielded an ED50 (Rattus norvegicus [9]) of 0.4 mg/kg, an ED50 (Rattus norvegicus [3]) of 0.44 mg/kg and an ED50 (Rattus norvegicus [11]) of 0.4 mg/kg.
